Patent US11091529B2, “Peptides having reduced toxicity that stimulate cholesterol efflux” (The Regents of the University of California, priority 2014, dated 2021)
Where no end group is shown, it is not given here.

Test system: male, chow-fed C57Bl/6 mice
Assay: Safety and TG elevating effects after IP injection of peptides (plasma CPK, ALT, AST, TG)
Details: 300 mg/kg IP; for muscle toxicity as judged by CPK activity in plasma: compared with ATI-5261
Text: Since the position of positively charged amino acids near the lipid-water interface of class A α-helices is thought to mediate membrane interactions, we tested whether inverting the positions of positive and negative residues within ATI-5261 lessened the toxic response of the peptide at high doses. Panel A—Helical-wheel and net diagrams of ATI-5261 showing the positions of positively charged lysine (K) and arginine (R) at the lipid interface of the amphipathic α-helix (i.e. helical wheel diagrams on left). […] Plasma CPK, ALT, AST and TG (table) were assessed after 4 h. Values and means±SD, n=4.
Panel A—The positions of charged amino acids within the LeuATI-5261 peptide were switched to move the positive lysine and arginine residues away from the lipid-water interface of the amphipathic α-helix. Panel B— Safety and TG elevating effects were evaluated by injecting (IP) peptides (300 mg/kg) into male, chow-fed C57Bl/6 mice. Values are means SD, n=4. […] J774 macrophages were labeled with [3H]cholesterol and treated with (red, right side bars) and without (blue, left side bars) cAMP to modulate ABCA1 expression.
Panel A—Safety and TG elevating effects were evaluated by injecting (IP) peptides (300 mg/kg) into male, chow-fed C57Bl/6 mice. Values are means SD, n=4. […] Panel B-ABCA1-dependent cholesterol efflux activity of peptides determined using J774 macrophages labeled with [3H]cholesterol. Results are expressed as the ABCA1 component of efflux.
Peptides or peptidomeimetics of the invention can be evaluated for toxicity using known assays. […] Safety chemistry panels including plasma alanine aminotransferase (ALT), aspartate amino transferase (AST), and creatine kinase (CK) can then be determined in the blood. […]
Since the position of positively charged amino acids near the lipid-water interface of class A α-helices is thought to mediate membrane interactions, we tested whether inverting the positions of positive and negative residues within ATI-5261 lessened the toxic response of the peptide at high doses. […] Plasma CPK, ALT, AST and TG (table) were assessed after 4 h as described in FIGS. 4-6. […]

Row | Sequence | muscle toxicity as judged by CPK activity in plasma | cytotoxicity (plasma CPK, ALT, AST) (plasma after 4 h, n=4)
1 | EVRSKLEEWFAAFREFAEEFLARL [T5766-5] | greatly reduced muscle toxicity | 
2 | EVRSKLEEWFAAFREFAEEFLARLNS [T5594-4] | greatly reduced muscle toxicity | 
3 | KVESELREWLAALEKLARRLLAELES [T6023-2] |  | no increase in muscle toxicity or elevated plasma enzymes compared to vehicle alone
